In PubChem BioAssay AID1963981 (Molecular Pharmacology Branch, DTP, NCI, 2024):

Test system: 354836-022-R-J1-PDC multicell spheroid viability
Assay: Anticancer human tumor 354836-022-R-J1-PDC patient-derived head and neck squamous cell carcinoma cell line growth inhibition [PI3K]
Conditions: for viability, T/C: stronger effect = lower value
Method in brief: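 High-throughput combination screen: PI3K inhibitors crossed with targeted small molecules on complex spheroids of tumor cells, HUVEC and MSCs at 37 degrees C, 5% CO2. Top concentration was at or near clinical Cmax (otherwise 10 microM), with half-log decrements.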

[1] = curve of first compound, second compound 0.0316 µM
[2] = curve of first compound, second compound 0.1 µM
[3] = curve of first compound, second compound 0.316 µM
[4] = curve of first compound, second compound 1 µM
[5] = second compound 0.0316 µM, first compound 0.0316 µM
[6] = second compound 0.0316 µM, first compound 0.1 µM
[7] = second compound 0.0316 µM, first compound 0.316 µM
[8] = second compound 0.0316 µM, first compound 1 µM
[9] = second compound 0.0316 µM, first compound 3.16 µM
[10] = second compound 0.0316 µM, first compound 10 µM
[11] = second compound 0.1 µM, first compound 0.0316 µM
[12] = second compound 0.1 µM, first compound 0.1 µM
[13] = second compound 0.1 µM, first compound 0.316 µM
[14] = second compound 0.1 µM, first compound 1 µM
[15] = second compound 0.1 µM, first compound 3.16 µM
[16] = second compound 0.1 µM, first compound 10 µM
[17] = second compound 0.316 µM, first compound 0.0316 µM
[18] = second compound 0.316 µM, first compound 0.1 µM
[19] = second compound 0.316 µM, first compound 0.316 µM
[20] = second compound 0.316 µM, first compound 1 µM
[21] = second compound 0.316 µM, first compound 3.16 µM
[22] = second compound 0.316 µM, first compound 10 µM
[23] = second compound 1 µM, first compound 0.0316 µM
[24] = second compound 1 µM, first compound 0.1 µM
[25] = second compound 1 µM, first compound 0.316 µM
[26] = second compound 1 µM, first compound 1 µM
[27] = second compound 1 µM, first compound 3.16 µM
[28] = second compound 1 µM, first compound 10 µM
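Note: spheroids exposed to agents for seven days before the viability read.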

For `Cn1nccc1Nc1nccc(-c2ccn(C(CO)c3ccc(Cl)c(F)c3)c(=O)c2)n1` (stereo not given) + CC(Nc1ccc2c(c1)OCCn1cc(N3C(=O)OCC3C(F)F)nc1-2)C(N)=O, the IC50 (curve of first compound, second compound 0.00316 µM) was over 10 µM, the IC50 (curve of first compound, second compound 0.01 µM) was over 10 µM and the IC50 [1] was over 10 µM. The IC50 [2] was over 10 µM, the IC50 [3] was over 10 µM and the IC50 [4] was over 10 µM. For the same compound, the viability, T/C (second compound 0.00316 µM, first compound 0.0316 µM) was 91.2%, the viability, T/C (second compound 0.00316 µM, first compound 0.1 µM) was 86.8% and the viability, T/C (second compound 0.00316 µM, first compound 0.316 µM) was 112%. It also gave a viability, T/C (second compound 0.00316 µM, first compound 1 µM) of 92.6%, a viability, T/C (second compound 0.00316 µM, first compound 3.16 µM) of 93.5% and a viability, T/C (second compound 0.00316 µM, first compound 10 µM) of 88.1%. For the same compound, the viability, T/C (second compound 0.01 µM, first compound 0.0316 µM) was 105%, the viability, T/C (second compound 0.01 µM, first compound 0.1 µM) was 92.5% and the viability, T/C (second compound 0.01 µM, first compound 0.316 µM) was 101%. For the same compound, the viability, T/C (second compound 0.01 µM, first compound 1 µM) was 95.1%, the viability, T/C (second compound 0.01 µM, first compound 3.16 µM) was 101% and the viability, T/C (second compound 0.01 µM, first compound 10 µM) was 88.5%. For the same compound, the viability, T/C [5] was 103%, the viability, T/C [6] was 92.4% and the viability, T/C [7] was 88.7%. For the same compound, the viability, T/C [8] was 88.6%, the viability, T/C [9] was 127% and the viability, T/C [10] was 98.2%. For the same compound, the viability, T/C [11] was 74.2%, the viability, T/C [12] was 100% and the viability, T/C [13] was 94.6%. The viability, T/C [14] was 88.7%, the viability, T/C [15] was 100% and the viability, T/C [16] was 98.4%. It also gave a viability, T/C [17] of 59.9%, a viability, T/C [18] of 73.3% and a viability, T/C [19] of 75.2%. The viability, T/C [20] was 72%, the viability, T/C [21] was 71.5% and the viability, T/C [22] was 71.8%. It also gave a viability, T/C [23] of 58.8%, a viability, T/C [24] of 50.1% and a viability, T/C [25] of 55.4%. The viability, T/C [26] was 62.4%, the viability, T/C [27] was 61.4% and the viability, T/C [28] was 41.4%.

With `CCCS(=O)(=O)Nc1ccc(F)c(C(=O)c2c[nH]c3ncc(-c4ccc(Cl)cc4)cc23)c1F` the viability, T/C (compound 0.1 µM) was 109% [middle of 4 runs], the viability, T/C (compound 0.316 µM) was 104% [middle of 4 runs] and the viability, T/C (compound 1 µM) was 91.5% [middle of 4 runs]. For the same compound, the viability, T/C (compound 3.16 µM) was 86% [middle of 4 runs], the viability, T/C (compound 10 µM) was 24.8% [middle of 4 runs] and the IC50 (curve of compound) was 6.06 µM [middle of 4 runs].

`C[C@@H](NC(=O)c1ncnc(N)c1Cl)c1ncc(C(=O)Nc2cc(C(F)(F)F)c(Cl)cn2)s1` + Cc1nc(NC(=O)N2CCCC2C(N)=O)sc1-c1ccnc(C(C)(C)C(F)(F)F)c1 showed an IC50 [1] of over 10 µM, an IC50 [2] of over 10 µM and an IC50 [3] of over 10 µM. The IC50 [4] was over 10 µM, the IC50 (curve of first compound, second compound 3.16 µM) was over 10 µM and the IC50 (curve of first compound, second compound 10 µM) was under 0.0316 µM. The viability, T/C [5] was 103%, the viability, T/C [6] was 78.6% and the viability, T/C [7] was 95.9%. The viability, T/C [8] was 87.3%, the viability, T/C [9] was 86.6% and the viability, T/C [10] was 60.6%. It also gave a viability, T/C [11] of 94.6%, a viability, T/C [12] of 95.4% and a viability, T/C [13] of 98%. It also gave a viability, T/C [14] of 97.2%, a viability, T/C [15] of 96.7% and a viability, T/C [16] of 66.2%. For the same compound, the viability, T/C [17] was 77.7%, the viability, T/C [18] was 89.7% and the viability, T/C [19] was 86.5%. The viability, T/C [20] was 90.8%, the viability, T/C [21] was 89.6% and the viability, T/C [22] was 77.8%. For the same compound, the viability, T/C [23] was 65.3%, the viability, T/C [24] was 87.1% and the viability, T/C [25] was 76.4%. For the same compound, the viability, T/C [26] was 75.3%, the viability, T/C [27] was 78.4% and the viability, T/C [28] was 67.7%. It also gave a viability, T/C (second compound 3.16 µM, first compound 0.0316 µM) of 53.9%, a viability, T/C (second compound 3.16 µM, first compound 0.1 µM) of 59.8% and a viability, T/C (second compound 3.16 µM, first compound 0.316 µM) of 70.1%. The viability, T/C (second compound 3.16 µM, first compound 1 µM) was 59.7%, the viability, T/C (second compound 3.16 µM, first compound 3.16 µM) was 66.5% and the viability, T/C (second compound 3.16 µM, first compound 10 µM) was 37.8%. For the same compound, the viability, T/C (second compound 10 µM, first compound 0.0316 µM) was 32.1%, the viability, T/C (second compound 10 µM, first compound 0.1 µM) was 38.4% and the viability, T/C (second compound 10 µM, first compound 0.316 µM) was 37.8%. It also gave a viability, T/C (second compound 10 µM, first compound 1 µM) of 39.2%, a viability, T/C (second compound 10 µM, first compound 3.16 µM) of 36.1% and a viability, T/C (second compound 10 µM, first compound 10 µM) of 16.7%.
